Laboratory results as given in patent publication US6958215B1, “Methods and compositions for inhibition of RNA splicing” (priority 1999, dated 2005).
[np] = N3'→P5' phosphoramidate internucleoside linkage; d = 2'-deoxy (DNA); r = 2'-OH (RNA)

Key:
[1] = tested on: C-10/1x ribozyme; test: Binding to C-10/1x ribozyme, competitive band-shift native electrophoresis; set-up: species or system Candida albicans; conditions: H15Mg buffer; for Binding to C-10/1x ΔG*37,C-10/1x: calculated from Kd, T = 310 K; for Tertiary Stability BETI (binding enhanced by tertiary interactions): calculated using Kd values; for Tertiary Stability ααG°37,BETI: difference in ΔG°37 for binding to C-10/1x and r(GGAGGC)
Procedure: C-10/1x is a Candida albicans rRNA Group I ribozyme. Dissociation constants for 5′ exon oligonucleotide mimics which bind to the C-10/1x ribozyme were measured by competitive band-shift native electrophoresis using methods described in Testa et al., Biochemistry 37:9379-9385 (1998). The results for a variety of oligonucleotides complementary or containing a one base mismatch to the C-10/1x 5′ exon guide sequence are shown in Table 2.

[2] = tested on: r(GGAGGC); test: Base-pairing to r(GGAGGC), thermodynamic melts; assay type: binding; conditions: H15Mg buffer; for Kd: calculated from ΔG°37, read-out: Binding to r(GGAGGC) Kd,B.P.
[3] = tested on: P. carinii rRNA precursor (P-h) containing a Group I intron; test: Inhibition of self-splicing, internally radiolabeled P-h precursor, gel assay; assay type: biochemical, Pneumocystis carinii; conditions: 2 mM Mg2+, up to 30 μM oligonucleotide, 1 mM pG
[4] = tested on: P. carinii rRNA precursor (P-h) containing a Group I intron; test: Fate of 5′ end radiolabeled hexamer with unlabeled P-h precursor (trans-splicing); assay type: biochemical, Pneumocystis carinii; conditions: 0, 2, 3, or 15 mM Mg2+
Procedure: The fate of the hexamers, (dA)n(dT)n(dG)n(dA)n(dC)n(rU) [Seq. ID No:1] and (dC)n(dA)n(dG)n(dT)n(dA)n(rU) [Seq. ID No:5], was also analyzed using radiolabeled hexamer and unlabeled precursor in the presence and absence of pG colactor. Approximately 300 nM unlabeled P-h precursor was reannealed at 55° C. in 3 μL of the appropriate buffer for 5 min and slow cooled to 37° C. A 3 μL solution of […] 5′ end radiolabeled hexamer in the same buffer at 37° C. was added and the reaction was allowed to proceed for 1 h. The reaction was quenched by the addition of 6 μL of 2× stop buffer and the reactants and products were separated on a 10% polyacrylamide, 8 M urea gel. The gel was dried under vacuum and the bands quantified with a Molecular Dynamics phosphorimager.

[5] = tested on: P. carinii rRNA precursor (P-h) containing a Group I intron; test: Oligonucleotide concentration dependence of cis- and trans-splicing, 3′ end radiolabeled P-h precursor; assay type: biochemical, Pneumocystis carinii; conditions: up to 30 μM oligonucleotide, 4 mM Mg2+

| Substance | Kd [1] [µM] | Binding to C-10/1x ΔG*37,C-10/1x [1] [kcal/mol] | Tertiary Stability BETI (binding enhanced by tertiary interactions) [1] | Tertiary Stability ααG°37,BETI [1] [kcal/mol] | Binding to r(GGAGGC) ΔG°37,B.P. [2] [kcal/mol] | Kd [2] [µM] | increase in the 5′ exon-intron product [3] | reactivity of 5′ radiolabeled hexamer with unlabeled precursor [4] | formation of trans-spliced product [5] |
| --- | --- | --- | --- | --- | --- | --- | --- | --- | --- |
| r(GCCUCU) [reference compound] | 0.0007 | -13.0 | 1500 | -4.5 | -8.5 | 100 | – | – | – |
| r(GACUCU) [reference compound] | 0.0069 | -11.6 | 4800000 | -9.5 | -2.1 | 600 | – | – | – |
| (dC)n(dA)n(dG)n(dT)n(dA)n(rU) (CAGTAU; sugars from the 5' end d5 r1, all [np], methylation of C not given here) [reference compound] | – | – | – | – | – | – | does not occur | not reactive | not formed |
